For one series, the system named is human erythrocytes. Description: protection of human erythrocytes from AAPH-induced lysis. The format is cell-based. Particulars: for IC50: Homo sapiens, Erythrocyte, 3 h, 100 mM AAPH, 10% RBC suspension, 37° C., 180 min, read-out: concentration of the agent that elicits 50% inhibition of cells lysis (IC50). As for the experimental part: In this example, experiments were conducted with human erythrocytes, subjecting them to free radicals generated by thermal activation of AAPH in a reaction mixture in the absence and in the presence of various amounts of purpurogallin or Trolox, to determine the cytoprotective capability of purpurogallin under these conditions.
Freshly obtained human erythrocytes were washed at least three times in saline with centrifugation at 1500 g×10 min. Then, a 20% suspension of RBC was prepared in the phosphate buffered saline (pH 7.4). (Miki et al., Arch. Biochem. Biophys. 258: 373-380, 1987).
The free radicals were generated by thermal activation of the azo-initiator2,2'-azo-bis(2-amidinopropane)HCl(AAPH). The reaction mixture (0.5 mL volumes) contained 10% red blood cell (RBC) suspension, AAPH (100 mM final level) and various levels of purpurogallin in 10 mM phosphate buffered saline. The above mixture was incubated at 37° C. for 180 min, while shaking gently. The, 35 μl aliquot of reaction mixture was taken out, diluted in 1.5 mL of saline, and centrifuged (1500 g for 10 min). The absorption of the supernatant at […] was read against a PBA blank. Similarly, the reaction mixture was treated with 1.5 mL of distilled water with sonication for 2 min to obtain complete hemolysis. Percent hemolysis was calculated according to Miki et al. (op. cit.).

In series [1] the test system is rat hepatocytes. Description: time to necrose rat hepatocytes exposed to xanthine oxidase/hypoxanthine oxyradicals (FIG. 2). The format is cell-based, rat (male Sprague-Dawley). Particulars: 3 mM; XOD 66.7 IU/L, 2 mM hypoxanthine; control approximately 6 min. As to the method: In this example, experiments were conducted with rat hepatocytes, subjecting them to the action of free radicals in the presence and absence of purpurogallin, at various levels.
Hepatocytes were prepared from male Sprague-Dawley rats (400 g-450 g) according the method of Princen et al. J. Clin. Invest. 78: 1064-1071 (1986), except that the perfusion of the liver was done first with 250 mL of 0.5 mM EGTA and 10 MM HEPES buffer solution (pH 7.4) containing 142 mM NaCl and 6.7 mM KCL via gravity drip at 20 mL/min., then with 100 mL of magnesium-free Hank's Balanced Salt Solution containing 5 mM CaCl2 and 0.05% collagenase according to Seglen, Exp. Cell. Res. 82: 391-398 (1973). All other details were as described previously (Wu et al., Biochem. Cell Biol. 68, 1189-1194, 1990).
Free radical studies were done by removing the cell medium and adding to the cells 3 mL of 0.05M sodium phosphate-buffered saline (PBS) (pH 7.4) containing 66.7 IU/L of xanthine oxidase (XOD) and 2 mM hypoxanthine, the latter two being used to generate oxyradicals. The base for comparing the effect of different levels of purpurogallin was the time taken to cause necrosis in 95% of 10^5 cells of the same generation in each culture dish. […]
The results are shown graphically in FIG. 2. […] The data are expressed as means±SD (standard deviation). […]

Series [2] has as its system rat hepatocytes. Nature of the series: survival of rat hepatocytes after exposure to oxyradical (Table I). The class given is cell-based. To be noted: for Mean Survival Time of 10^5 Rat Hepatocytes After Exposure to Oxyradical: control about 6.5 minutes. An excerpt:
In further studies, culturing the rat hepatocytes and testing for oxyradical damage using purpurogallin and Trolox additives according to the procedure of Wu et al. op. cit., and Clin. Chem. 36: 1172-1173 (abstract), 1990, the results given below in Table I were obtained.

Series [3] deals with Human ventricular myocytes. Nature of the series: survival of ventricular myocytes after exposure to oxyradical (Table II). Particulars: for Mean survival time of human ventricular myocytes after exposure to oxyradical: control 2 minutes, mean of 5-7 replicates. The class given is cell-based. The text has this:
Human ventricular myocytes were isolated and tested with purpurogallin and Trolox for protection against oxyradical damage using the methods and procedures described by Wu et al., op cit.
Each result reported in Table II is the mean of 5-7 closely agreeing replicates.

Series [4] relates to Rat kidney mesangial cells. Nature of the series: survival of rat kidney mesangial cells exposed to XOD and hypoxanthine (Table III). The class given is cell-based. To be noted: for Mean Time Survival of Cells Exposed to XOD and Hypoxanthine: XOD 66.7 IU/L, hypoxanthine 0.5 mM, control 5.7. An excerpt: Rat kidney mesangial cells were isolated and tested with purpurogallin versus Trolox over the same range of concentrations, for protection against oxyradical damage using methods and procedures described by Wu et al., op cit. […]

A further series concerns rat livers. Description: partial hepatic ischemia-reperfusion in vivo. Particulars: for Mean Necrosis (% by weight): infused via penile vein, 24 h reperfusion, saline control 30.3, n=6. Details: species or system Sprague-Dawley rats. As to the method: In vivo studies were conducted on rat livers, to determine the effectiveness of purpurogallin as a cytoprotectant in partial hepatic ischemia-reperfusion.
There was used the same model as described in Wu et al. Hepatology 13: 575-580, (1991). In essence, the model involves the occlusion of blood vessels supplying to the left lateral, median, and Spigelian lobes of the rate liver by clamping the left portal vein, left hepatic artery and left bile duct. The right portal vein, hepatic artery and bile duct were left intact as an interal shunt. The occlusion was done in Sprague-Dawley rats (0.3-0.4 kg) which had fasted overnight. Approximately […] before the end of ischemia, either 3 mL of saline (control) or saline containing purpurogallin or Trolox (at the levels specified below) was infused into the animals via the penile vein over a 3 minute period. This was followed by reperfusion for 24 hours. Then, the extent of necrosis (based on wet weight of the liver) was quantified by a well established histochemical method (Frederiks et al., Exptl. Mol. Path 41: 119-125, 1984).

The next series deals with heart. Description: heart ischemia-reperfusion in vivo. Details: species or system New Zealand white rabbits. As to the method: In this example, the cytoprotective effect of purpurogallin in vivo, in heart ischemia-reperfusion in rabbits was examined.
New Zealand white rabbits (3.0-3.5 kg by weight) were anaesthetized with intramuscular injection of Ketamine (35 mg/kg) and Atravet (0.4 mg/kg), and intravenous injection of atropine (0.1 mg/kg).
After shaving the frontal area of the animal, anaesthesia was maintained by performing tracheotomy and ventilating the animal with positive pressure respiration using a Harvard small animal respirator and a gas mixture of 2.5% ethrane (or enflurane) in oxygen. A midline sternotomy was done. The pericardium was opened and the heart was exposed. The main branch of the anterior ventricular coronary artery that supplies blood to a great part of the left ventricle and apex in rabbits (also referred to as the left circumflex coronary artery) was temporarily ligated with a 5-0 silk thread for 1 hour at the site between 1/2 to 2/3 from apex to the atrioventricular groove. Approximately 1 minute before releasing the occlusion, a 30-ml bolus of 1 mM test solution was injected through the right external jugular vein. In control animals, a 30-mL bolus of normal saline was given instead of the test solution. […] After this period, the heart was harvested, stained for enzyme activity with a tetrazolium dye and the areas of necrosis determined by planimetry. […]

A further series in a line: water solubility. The class given is physicochemical. To be noted: 4 mM prepared in PBS with brief sonication, pH adjusted to 7.40±0.05.

For `O=c1c(O)cccc2cc(O)c(O)c(O)c12` [Purpurogallin, 2,3,4,6-tetrahydroxy-5H-benzocyclohepten5-one], in the series with human erythrocytes, the IC50 amounted to 120 µM. In the series on human erythrocytes (versus Trolox), the “effectiveness versus Trolox in protecting cells from lysis (from IC50)” value is reported as “six”. Besides, the “time taken to necrose 100,000 hepatocytes” value in the series on rat hepatocytes [1] is given as “up to 30 min”. The “Mean Survival Time of 10^5 Rat Hepatocytes After Exposure to Oxyradical” value is given as 18 min in the series on rat hepatocytes [2] (0.5 mM), 20 min in the series with rat hepatocytes [2] (1.0 mM) and 31 min in the series with rat hepatocytes [2] (2.0 mM). Moreover, the “protection of rat hepatocytes compared with Trolox” value in the series on rat hepatocytes [2] (at equivalent concentrations) was “clearly more protective of rat hepatocytes than Trolox”. Moreover, the “Mean survival time of human ventricular myocytes after exposure to oxyradical” value in series [3] (0.5 mM) is listed as 14 min; in series [3] (1.0 mM), more than 60 min; in series [3] (1.5 mM) it was more than 60 min; in series [3] (3.0 mM), more than 60 min. Moreover, the “protection of myocytes compared with Trolox” value in series [3] (especially at levels greater than 0.5 mM) is “at least an order of magnitude more protective of myocytes than Trolox”. The “Mean Time Survival of Cells Exposed to XOD and Hypoxanthine” value worked out at 11.5 min in series [4] (0.13 mM), 13.4 min in series [4] (0.25 mM), 16.0 min in series [4] (0.50 mM) and 19.4 min in series [4] (1.00 mM). Besides, the “protection of kidney cells compared with Trolox” value in series [4] (over all the levels examined) is given as “protects the kidney cells substantially better than Trolox”. In addition, the “Mean Necrosis (% by weight)” value in the series on rat livers (4.4 μmoles/kg body weight, SD 4.6) is recorded as 17.7 % by weight; with rat livers (8.8 μmoles/kg body weight, SD 4.9), 7.3 % by weight; in the series with rat livers (18 μmoles/kg body weight, SD 1.1), 4.4 % by weight. Moreover, the “% Salvage of Liver” value turned out to be 42% with rat livers (4.4 μmoles/kg body weight, p value vs control <0.05); 76% in the series with rat livers (8.8 μmoles/kg body weight, p value vs control 0.005); 86% in the series with rat livers (18 μmoles/kg body weight, p value vs control 0.001). Also, the “Mean % (± SD) organ necrosis in area at risk” value in the series on heart (8.6-10 μmoles/kg body weight (30-ml bolus of 1 mM), right external jugular vein, 3-hour reperfusion, saline control 46.6 ± 10, p <0.001) was 11.8 ± 6.2%. The “Mean & organ salvage” value in the series on heart (8.6-10 μmoles/kg body weight, p <0.001 vs control) is 75%. Moreover, in “water solubility”, the water solubility result is “partly water-soluble”.
Regarding `Cc1c(C)c2c(c(C)c1O)CCC(C)(C(=O)O)O2` (centres unmarked) [Trolox, 6-hydroxy-2,5,7,8-tetramethylchroman-2-carboxylic acid, reference compound], the IC50 in the series with human erythrocytes is approximately 740 µM. In addition, the “Mean Survival Time of 10^5 Rat Hepatocytes After Exposure to Oxyradical” value in the series with rat hepatocytes [2] (0.5 mM) is recorded as 12 min; in the series with rat hepatocytes [2] (1.0 mM), 13 min; in the series with rat hepatocytes [2] (2.0 mM), 16 min. For the same compound, the “Mean survival time of human ventricular myocytes after exposure to oxyradical” value came to 3.5 min in series [3] (0.5 mM), 4.5 min in series [3] (1.0 mM), 4.8 min in series [3] (1.5 mM) and 5.3 min in series [3] (3.0 mM). For the same compound, the “Mean Time Survival of Cells Exposed to XOD and Hypoxanthine” value worked out at 6.4 min in series [4] (0.13 mM), 6.6 min in series [4] (0.25 mM), 7.4 min in series [4] (0.50 mM) and 7.8 min in series [4] (1.00 mM).
